Experimental findings from patent EP0761658A1, “Azole-phenyl urea derivatives as ACAT inhibitors and their production” (NIHON NOHYAKU CO., LTD., priority 1995, dated 1997) are described below.

The test system of assay [1] is acyl-CoA:cholesterol acyltransferase (ACAT). The assay is described as follows: Inhibitory activity on acyl-CoA:cholesterol acyltransferase (ACAT), microsomal fraction of intestinal mucosa, [1-14C]oleyl-CoA incorporation into cholesterol esters. It is filed as biochemical, white rabbit. The note with it: rabbit intestinal mucosa microsomes. As to the method: The enzyme used in the test was prepared according to the method of Heider et al. [J. Lipid Res. 24, 1127 (1983)]. A white rabbit was killed by blood-letting under anesthesia, after which its intestinal mucosa was collected and then homogenized, and microsomal fraction was obtained by stepwise centrifugation. The microsomal fraction was suspended in 0.154 M phosphate buffer (pH 7.4) and stored at -80°C until use.
ACAT activity was determined by a modification of the method of Helgerud et al. [J. Lipid Res. 22, 271 (1981)] by measuring radioactivity incorporated into cholesterol esters from [1-^14C]oleyl-CoA, as an indication. As to the ACAT-inhibitory activity of each compound to be tested, the inhibition rate was calculated by the following equation. Inhibition rate (%) =([ACAT activity of control group which was given solvent]-[ACAT activity of group treated with compound to be tested])/([ACAT activity of control group which was given solvent])x 100 [formula]

In assay [2] the test system is rats fed on a high-cholesterol diet. Description: Serum cholesterol lowering activity in rats fed on a high-cholesterol diet. It counts as in vivo, Male Sprague-Dawley rats. As to conditions: Rattus norvegicus, 96 h; total serum cholesterol; 30 mg per kg of body weight per day for 4 days, suspended in 0.5% carboxymethyl cellulose; blood 24 hours after last administration; read-out: Reduction rate (%). The protocol:
Male Sprague-Dawley rats of 6-week-old were divided into three groups. The first group (normal group) was fed an ordinary diet for 4 days. The second group (control group) was fed a high cholesterol diet (containing 1.0% cholesterol, 1.0% cholic acid and 8.5% coconut oil) for 4 days. The third group (treated group) was fed a high cholesterol diet and was treated with a compound for 4 days.
Simultaneously with the beginning of the above feeding, the compound was suspended in a 0.5% carboxymethyl cellulose solution and administered to the treated group, in a dose of 30 mg (in terms of the compound) per kg of body weight per day for 4 days. A 0.5% carboxymethyl cellulose solution was also administered to the normal group and the control group in the same manner as above.
After 24 hours of the last administration, blood was collected and the cholesterol concentration in serum was measured by an enzymatic method. The reduction rate of the total serum cholesterol concentration was calculated from values obtained for the three groups by the following equation. Choresterol reduction rate (%) =((A) - (B))/((A) - (C))x 100 [formula] wherein A: the serum cholesterol concentration of the control group. B: the serum cholesterol concentration of the treated group. C: the serum cholesterol concentration of the normal group.

[3] abbreviates: compound concentration 1 (head prints '1 | 0.01 µm').

Turning to `CC(C)c1cccc(C(C)C)c1NC(=O)Nc1nc(-c2ccccc2)n(Cc2ccccc2)c1-c1ccccc1Cl` [Compound 37, N-[1-Benzyl-5-(2-chlorophenyl)-2-phenylimidazol-4-yl]-N'-(2,6-diisopropylphenyl)urea], in assay [1] (compound concentration 0.01 µm), the Inhibition rate % came out at 80.4%. Moreover, the inhibition in vivo at 30 mg/kg in assay [2] was 59%.

Compound `Cc1ccccc1-c1oc(-c2ccccc2)nc1NC(=O)Nc1c(C(C)C)cccc1C(C)C` [Compound 31, N-(2,6-Diisopropylphenyl)-N'-[5-(2-methylphenyl)-2-phenyloxazol-4-yl]urea] returned an Inhibition rate % in assay [1] (compound concentration 0.01 µm) of 70.6%. Besides, the inhibition in vivo at 30 mg/kg in assay [2] was 59.8%.

Take `CSc1ccccc1-c1sc(-c2ccccc2)nc1NC(=O)Nc1c(C(C)C)cccc1C(C)C` [Compound 30, N-(2,6-Diisopropylphenyl)-N'-[5-(2-methylthiophenyl)-2-phenylthiazol-4-yl]urea]: in assay [1] (compound concentration 0.01 µm), the Inhibition rate % was 76.8%. Moreover, in assay [2], the inhibition in vivo at 30 mg/kg is 75.7%.

Compound `Cc1nc(NC(=O)Nc2c(C(C)C)cccc2C(C)C)c(-c2ccccc2C)s1` [Compound 29, N-(2,6-Diisopropylphenyl)-N'-[2-methyl-5-(2-methylphenyl)thiazol-4-yl]urea] showed an Inhibition rate % in assay [1] (compound concentration 0.01 µm) of 90.2%. Moreover, the inhibition in vivo at 30 mg/kg in assay [2] was found to be 46.1%.

For the compound `CCc1nc(-c2ccccc2Cl)c(NC(=O)Nc2c(C(C)C)cccc2C(C)C)s1` [Compound 11, N-[4-(2-Chlorophenyl)-2-ethylthiazol-5-yl]-N'-(2,6-diisopropylphenyl)urea], the Inhibition rate % in assay [1] (compound concentration 0.01 µm) was determined as 42.9%; in assay [1] (setting [3]), 99.2%. Further, the inhibition in vivo at 30 mg/kg in assay [2] came to 46.2%.

Regarding `CC(C)c1cccc(C(C)C)c1NC(=O)Nc1sc(-c2ccccc2)nc1-c1ccccc1Cl` [Compound 1, N-[4-(2-Chlorophenyl)-2-phenylthiazol-5-yl]-N'-(2,6-diisopropylphenyl)urea], the Inhibition rate % turned out to be 38.7% in assay [1] (compound concentration 0.01 µm) and 99.9% in assay [1] (setting [3]). In addition, in assay [2], the inhibition in vivo at 30 mg/kg was determined as 53.8%.

The compound `CCc1cccc(CC)c1NC(=O)Nc1nc(-c2ccccc2)sc1-c1ccccc1C` [Compound 28, N-(2,6-Diethylphenyl)-N'-[5-(2-methylphenyl)-2-phenylthiazol-4-yl]urea] returned an Inhibition rate % in assay [1] (compound concentration 0.01 µm) of 64.1%. The inhibition in vivo at 30 mg/kg in assay [2] was 87.8%.

For the compound `Cc1ccccc1-c1sc(-c2ccccc2)nc1NC(=O)Nc1c(C(C)C)cccc1C(C)C` [Compound 27, N-(2,6-Diisopropylphenyl)-N'-[5-(2-methylphenyl)-2-phenylthiazol-4-yl]urea], in assay [1] (compound concentration 0.01 µm), the Inhibition rate % is listed as 86.5%. Moreover, the inhibition in vivo at 30 mg/kg in assay [2] was found to be 61.7%.

In the case of `Cc1ccccc1-c1nc(-c2ccccc2)sc1NC(=O)Nc1c(C(C)C)cccc1C(C)C` [Compound 2, N-(2,6-Diisopropylphenyl)-N'-[4-(2-methylphenyl)-2-phenylthiazol-5-yl]urea], the figures for the Inhibition rate % in assay [1] (compound concentration 0.01 µm) and in assay [1] (setting [3]) were 55.2% and 99.8%, respectively. The inhibition in vivo at 30 mg/kg in assay [2] was 85.7%.

Consider `Cc1nc(NC(=O)Nc2c(C(C)C)cccc2C(C)C)c(-c2ccccc2Cl)s1` [Compound 25, N-[5-(2-Chlorophenyl)-2-methylthiazol-4-yl]-N'-(2,6-diisopropylphenyl)urea], for which the Inhibition rate % in assay [1] (compound concentration 0.01 µm) came to 88.1%. Also, the inhibition in vivo at 30 mg/kg in assay [2] came out at 39.1%.

Take `CC(C)c1cccc(C(C)C)c1NC(=O)Nc1sc(N2CCCCC2)nc1-c1ccccc1Cl` [Compound 19, N-[4-(2-Chlorophenyl)-2-(N-piperidino)thiazol-5-yl]-N'-(2,6-diisopropylphenyl)urea]: in assay [1] (setting [3]), the Inhibition rate % came out at 99.9%.

In the case of `CC(C)c1cccc(C(C)C)c1NC(=O)Nc1nc(-c2ccccc2)n(C)c1-c1ccccc1Cl` [Compound 35, N-[5-(2-Chlorophenyl)-1-methyl-2-phenylimidazol-4-yl]-N'-(2,6-diisopropylphenyl)urea], the figures for the Inhibition rate % in assay [1] (compound concentration 0.01 µm) and in assay [1] (setting [3]) were 33.5% and 99.6%, respectively.

In the case of `CC(C)c1cccc(C(C)C)c1NC(=O)Nc1nc(-c2ccccc2)sc1-c1ccccc1Cl` [Compound 23, N-[5-(2-Chlorophenyl)-2-phenylthiazol-4-yl]-N'-(2,6-diisopropylphenyl)urea], the Inhibition rate % in assay [1] (compound concentration 0.01 µm) is 59.4%; in assay [1] (setting [3]), 99.6%. In addition, in assay [2], the inhibition in vivo at 30 mg/kg was determined as 108%.

`CCc1cccc(CC)c1NC(=O)Nc1sc(N2CCCCC2)nc1-c1ccccc1` [Compound 17, N-(2,6-Diethylphenyl)-N'-[4-phenyl-2-(N-piperidino)thiazol-5-yl)urea]: the Inhibition rate % in assay [1] (setting [3]) worked out at 99.8%.

`Cc1ccccc1-c1nc(-c2ccccc2)oc1NC(=O)Nc1c(C(C)C)cccc1C(C)C` [Compound 33, N-(2,6-Diisopropylphenyl)-N'-[4-(2-methylphenyl)-2-phenyloxazol-5-yl]urea] displayed an Inhibition rate % in assay [1] (compound concentration 0.01 µm) of 62.0%. Also, in assay [2], the inhibition in vivo at 30 mg/kg was 73.2%.

`CC(C)c1cccc(C(C)C)c1NC(=O)Nc1sc(C2CCCCC2)nc1-c1ccccc1Cl` [Compound 13, N-[4-(2-Chlorophenyl)-2-cyclohexylthiazol-5-yl]-N'-(2,6-diisopropylphenyl)urea]: the Inhibition rate % in assay [1] (setting [3]) was found to be 72.7%.

`Cc1nc(-c2ccccc2)c(NC(=O)Nc2c(C(C)C)cccc2C(C)C)s1` [Compound 3, N-(2,6-Diisopropylphenyl)-N'-(2-methyl-4-phenylthiazol-5-yl)urea] showed an Inhibition rate % in assay [1] (setting [3]) of 92.1%.
